US20200181121A1, “Cocrystal of Telmisartan and Hydrochlorothiazide” (SHANGHAI INSTITUTE OF MATERIA MEDICA, CHINESE ACADEMY OF …, priority 2017, published 2020)

Experiment: Accelerated stability test (ICH Q1E), change of the content
Type: physicochemical
Conditions: 40°C±2°C, RH 75±5%, polyethylene-sealed bag
Experimental: According to the description in “Stability Data Evaluation” of ICH guidelines Q1E, a comparison of accelerated stability test (at 40° C.±2° C., RH 75±5%) of cocrystal of hydrochlorothiazide and telmisartan obtained in Example 1 with that of telmisartan or hydrochlorothiazide itself was conducted respectively. The cocrystal of telmisartan and hydrochlorothiazide, telmisartan, and hydrochlorothiazide were double packaged using the polyethylene-sealed bag respectively, stood for 1, 2 or 3 months under the accelerated stability test conditions (at 40° C.±2° C., RH 75±5%). Then the samples were taken and measured for the change of the content.

Compound | content of hydrochlorothiazide (0 month) | content of hydrochlorothiazide (1 month) | content of hydrochlorothiazide (2 months) | content of hydrochlorothiazide (3 months) | content of telmisartan (0 month) | content of telmisartan (1 month) | content of telmisartan (2 months) | content of telmisartan (3 months)
NS(=O)(=O)c1cc2c(cc1Cl)NCNS2(=O)=O [Hydrochlorothiazide, 6-chloro-3,4-dihydro-2H-1,2,4-benzothiadiazine-7-sulfonamido-1,1-dioxide] | 100% | 97.37% | 96.34% | 95.28% | – | – | – | –
CCCc1nc2c(C)cc(-c3nc4ccccc4n3C)cc2n1Cc1ccc(-c2ccccc2C(=O)O)cc1 [Telmisartan, 4′-[[2-propyl-4-methyl-6(1-methyl-benzimidazol-2-yl)-benzimidazol-1-yl]methyl]-2-biphenylcarboxylic acid] | – | – | – | – | 100% | 97.28% | 94.47% | 94.20%
